According to PubChem BioAssay (NCI):
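These data come from cells grown in 96-well plates and exposed to compound for 48 hours at five concentrations. TGI marks complete inhibition of growth.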

Tests used:
Assay in all cases: NCI anticancer screen, dose series, 48 h
SNB-75 CNS = tested on: SNB-75 CNS
NCI-H226 lung = tested on: NCI-H226 lung
HCT-116 colon = tested on: HCT-116 colon
CCRF-CEM leukemia = tested on: CCRF-CEM leukemia
SNB-19 CNS = tested on: SNB-19 CNS
RXF 393 renal = tested on: RXF 393 renal
M14 melanoma = tested on: M14 melanoma
NCI/ADR-RES ovarian = tested on: NCI/ADR-RES ovarian
MDA-MB-231 breast = tested on: MDA-MB-231 breast
IGROV1 ovarian = tested on: IGROV1 ovarian
LOX IMVI melanoma = tested on: LOX IMVI melanoma
SF-268 CNS = tested on: SF-268 CNS
COLO 205 colon = tested on: COLO 205 colon
UACC-62 melanoma = tested on: UACC-62 melanoma
TK-10 renal = tested on: TK-10 renal
PC-3 prostate = tested on: PC-3 prostate
RPMI-8226 leukemia = tested on: RPMI-8226 leukemia
SK-OV-3 ovarian = tested on: SK-OV-3 ovarian
MDA-N = tested on: MDA-N
NCI-H23 lung = tested on: NCI-H23 lung
HOP-62 NSCLC = tested on: HOP-62 NSCLC
BT-549 breast = tested on: BT-549 breast
A498 renal = tested on: A498 renal
OVCAR-8 ovarian = tested on: OVCAR-8 ovarian
HOP-92 NSCLC = tested on: HOP-92 NSCLC
SK-MEL-5 melanoma = tested on: SK-MEL-5 melanoma
786-0 renal = tested on: 786-0 renal
U251 CNS = tested on: U251 CNS
SF-539 CNS = tested on: SF-539 CNS
SF-295 CNS = tested on: SF-295 CNS
SK-MEL-2 melanoma = tested on: SK-MEL-2 melanoma
EKVX NSCLC = tested on: EKVX NSCLC
ACHN renal = tested on: ACHN renal
SK-MEL-28 melanoma = tested on: SK-MEL-28 melanoma
MOLT-4 leukemia = tested on: MOLT-4 leukemia
NCI-H522 lung = tested on: NCI-H522 lung
HL-60(TB) leukemia = tested on: HL-60(TB) leukemia
T-47D breast = tested on: T-47D breast
A549 NSCLC = tested on: A549 NSCLC
K-562 leukemia = tested on: K-562 leukemia
NCI-H460 lung = tested on: NCI-H460 lung
HS 578T breast = tested on: HS 578T breast
DU-145 prostate = tested on: DU-145 prostate
SW-620 colon = tested on: SW-620 colon
SN12C renal = tested on: SN12C renal
HCT-15 colon = tested on: HCT-15 colon
HT29 colon = tested on: HT29 colon
UO-31 renal = tested on: UO-31 renal
OVCAR-3 ovarian = tested on: OVCAR-3 ovarian
SR leukemia = tested on: SR leukemia
KM12 colon = tested on: KM12 colon
CAKI-1 renal = tested on: CAKI-1 renal
MDA-MB-435 = tested on: MDA-MB-435
MALME-3M melanoma = tested on: MALME-3M melanoma
MCF7 breast = tested on: MCF7 breast
OVCAR-4 ovarian = tested on: OVCAR-4 ovarian
OVCAR-5 ovarian = tested on: OVCAR-5 ovarian
UACC-257 melanoma = tested on: UACC-257 melanoma

O=C1C[C@@H](Sc2ccccc2)C2(OCCO2)C2ON3CCCC[C@H]3[C@H]12 (some centres undefined) was tested, and the TGI (SNB-75 CNS) was 29.9 µM, the TGI (NCI-H226 lung) was 33.2 µM and the TGI (HCT-116 colon) was 16.7 µM. It also gave a TGI (CCRF-CEM leukemia) of 4.71 µM, a TGI (SNB-19 CNS) of 32.1 µM and a TGI (RXF 393 renal) of 12.3 µM. For the same molecule, the TGI (M14 melanoma) was 30.3 µM, the TGI (NCI/ADR-RES ovarian) was 18.9 µM and the TGI (MDA-MB-231 breast) was 25.9 µM. The TGI (IGROV1 ovarian) was 19.2 µM, the TGI (LOX IMVI melanoma) was 10.1 µM and the TGI (SF-268 CNS) was 23.3 µM. The TGI (COLO 205 colon) was 27.1 µM, the TGI (UACC-62 melanoma) was 18.5 µM and the TGI (TK-10 renal) was 13 µM. For the same molecule, the TGI (PC-3 prostate) was 24.2 µM, the TGI (RPMI-8226 leukemia) was 12.5 µM and the TGI (SK-OV-3 ovarian) was > 100 µM. It also gave a TGI (MDA-N) of 33.3 µM, a TGI (NCI-H23 lung) of 22.8 µM and a TGI (HOP-62 NSCLC) of 33 µM. For the same molecule, the TGI (BT-549 breast) was 20.7 µM, the TGI (A498 renal) was > 95.3 µM and the TGI (OVCAR-8 ovarian) was 13.9 µM. The TGI (HOP-92 NSCLC) was 19.2 µM, the TGI (SK-MEL-5 melanoma) was 20.7 µM and the TGI (786-0 renal) was 12.7 µM. The TGI (U251 CNS) was > 39.5 µM, the TGI (SF-539 CNS) was 4.5 µM and the TGI (SF-295 CNS) was 38.4 µM. It also gave a TGI (SK-MEL-2 melanoma) of 39.8 µM, a TGI (EKVX NSCLC) of 26.1 µM and a TGI (ACHN renal) of 6.33 µM. The TGI (SK-MEL-28 melanoma) was 41.6 µM, the TGI (MOLT-4 leukemia) was 5.1 µM and the TGI (NCI-H522 lung) was 6.93 µM. The TGI (HL-60(TB) leukemia) was 4.9 µM, the TGI (T-47D breast) was 46.8 µM and the TGI (A549 NSCLC) was 31.4 µM. For the same molecule, the TGI (K-562 leukemia) was 6.79 µM, the TGI (NCI-H460 lung) was 28.8 µM and the TGI (HS 578T breast) was 31 µM. For the same molecule, the TGI (DU-145 prostate) was 24.5 µM, the TGI (SW-620 colon) was 14.4 µM and the TGI (SN12C renal) was 14.8 µM. For the same molecule, the TGI (HCT-15 colon) was > 29.6 µM, the TGI (HT29 colon) was 15.7 µM and the TGI (UO-31 renal) was 17.3 µM. It also gave a TGI (OVCAR-3 ovarian) of 26.8 µM, a TGI (SR leukemia) of 4.35 µM and a TGI (KM12 colon) of 19.7 µM. For the same molecule, the TGI (CAKI-1 renal) was 21 µM, the TGI (MDA-MB-435) was 34.7 µM and the TGI (MALME-3M melanoma) was 22.9 µM. For the same molecule, the TGI (MCF7 breast) was 14.3 µM, the TGI (OVCAR-4 ovarian) was 21.8 µM and the TGI (OVCAR-5 ovarian) was 33.5 µM. The TGI (UACC-257 melanoma) was 28.1 µM.
For COc1cc2c(c(O)c1OC)C(=O)C1CCC(=O)N1C2c1cccc2ccccc12 (centres undefined), the TGI (SNB-75 CNS) was > 100 µM, the TGI (NCI-H226 lung) was > 100 µM and the TGI (HCT-116 colon) was > 100 µM. The TGI (CCRF-CEM leukemia) was 77 µM, the TGI (SNB-19 CNS) was > 100 µM and the TGI (RXF 393 renal) was > 100 µM. The TGI (M14 melanoma) was > 100 µM, the TGI (NCI/ADR-RES ovarian) was > 100 µM and the TGI (MDA-MB-231 breast) was > 100 µM. For the same molecule, the TGI (IGROV1 ovarian) was > 100 µM, the TGI (SF-268 CNS) was > 100 µM and the TGI (COLO 205 colon) was 32.8 µM. The TGI (UACC-62 melanoma) was > 100 µM, the TGI (PC-3 prostate) was > 100 µM and the TGI (RPMI-8226 leukemia) was 81.2 µM. For the same molecule, the TGI (SK-OV-3 ovarian) was > 100 µM, the TGI (MDA-N) was > 100 µM and the TGI (NCI-H23 lung) was > 100 µM. The TGI (HOP-62 NSCLC) was > 100 µM, the TGI (BT-549 breast) was > 100 µM and the TGI (A498 renal) was > 100 µM. For the same molecule, the TGI (OVCAR-8 ovarian) was > 100 µM, the TGI (HOP-92 NSCLC) was 89.5 µM and the TGI (SK-MEL-5 melanoma) was > 100 µM. For the same molecule, the TGI (786-0 renal) was > 100 µM, the TGI (U251 CNS) was > 100 µM and the TGI (SF-539 CNS) was > 100 µM. For the same molecule, the TGI (SF-295 CNS) was > 100 µM, the TGI (SK-MEL-2 melanoma) was > 100 µM and the TGI (EKVX NSCLC) was > 100 µM. The TGI (ACHN renal) was > 100 µM, the TGI (SK-MEL-28 melanoma) was > 100 µM and the TGI (MOLT-4 leukemia) was 89.6 µM. The TGI (NCI-H522 lung) was > 100 µM, the TGI (HL-60(TB) leukemia) was 63.9 µM and the TGI (T-47D breast) was > 100 µM. The TGI (A549 NSCLC) was > 100 µM, the TGI (K-562 leukemia) was 59.2 µM and the TGI (NCI-H460 lung) was > 100 µM. The TGI (HS 578T breast) was > 100 µM, the TGI (DU-145 prostate) was > 100 µM and the TGI (SW-620 colon) was > 100 µM. The TGI (SN12C renal) was > 100 µM, the TGI (HCT-15 colon) was > 100 µM and the TGI (HT29 colon) was > 100 µM. The TGI (UO-31 renal) was > 100 µM, the TGI (OVCAR-3 ovarian) was > 100 µM and the TGI (SR leukemia) was > 100 µM. The TGI (KM12 colon) was > 100 µM, the TGI (CAKI-1 renal) was > 100 µM and the TGI (MDA-MB-435) was > 100 µM. The TGI (MALME-3M melanoma) was > 100 µM, the TGI (MCF7 breast) was > 100 µM and the TGI (OVCAR-4 ovarian) was > 100 µM. The TGI (OVCAR-5 ovarian) was > 100 µM and the TGI (UACC-257 melanoma) was > 100 µM.
